Experimental data as given in patent US20060293335A1 (priority 2002, published 2006).
Read-outs that look alike come from different tables or passages of the source.

What was measured:
[1] = test system: Male wistar Rats; details: medium and high LRM injected
Procedure: 60 Wistar rats weighing 64.5±4.6 g were used in the experiment. […] The rats were weighed every 6 days. […] The blood glutathione reductase activity coefficient (BGRAC) was measured.

[2] = test system: oral ulcer after chemotherapy
Procedure: 35 cases of acute lymphocytic leukemia and 13 cases of acute nonlymphocytic leukemia (6 M2 cases, 3 M3 cases, 2 M4 cases and 2 M5 cases) were also included.
Treatment: Regular chemotherapies, such as CODPL, HDMTX, DA were adopted. Other chemotherapies regimens were not listed. Tetrahydrofolate folic calcium was used to against the toxicity of HDMTX (hige-dose MTX). Hydration and alkalinizing of urine were performed in all patients by Dobll's solution. 5% NaHCO3 and 3% peroxide hydrogen were used to rinse the mouth alternatively.

[3] = not given; remark: listed apart in the source
[4] = for urinary riboflavin excretion: i.m., riboflavin-free diet
[5] = test system: oral ulcer after bone marrow transplantation; details: 28 leukemia cases with bone marrow transplantation; 150 mg LRM injected
Procedure: 28 cases of leukemia with bone marrow transplantation were recruited. 150 mg LRM was injected for prevention of catarrh.

[6] = test system: blood glutathione reductase activity coefficient (BGRAC)
[7] = day 15, medium dosage (5.01 g for 90 days per rat as printed; riboflavin group same dosage)
[8] = day 30, medium dosage (riboflavin group same dosage)
[9] = day 60, medium dosage (riboflavin group same dosage)
[10] = day 90, medium dosage (riboflavin group same dosage)

CCCCCCCCCCCC(=O)OC[C@@H](O)[C@@H](O)[C@@H](O)Cn1c2nc(=O)[nH]c(=O)c-2nc2cc(C)c(C)cc21 [LRM, 5′-lauric acid monoester of riboflavin]
release of free riboflavin in the body [1]: could slowly release free riboflavin and meet the demand of the body
food-intake (low dosage LRM group, after 30 days): decreased
weight gain (medium and high dosage LRM groups): gained weight significantly
gain of body weight (medium dosage LRM group, at the end of the experiment (FIG. 2)): lower than that of the high dosage LRM group
food intake (medium dosage LRM group, in the last few days): decreased and was lower than that of the high dosage LRM group
food intake (the three LRM groups (FIG. 1)): higher than the riboflavin group and the riboflavin deficiency group
Occurrence (%) of oral ulcer ([2]; ALL, LRM treated before chemotherapy (150 mg i.m.)): 0%
Ulcer observed (times) ([2]; ALL, LRM treated before chemotherapy (150 mg i.m.), 18 chemotherapies): 0 times
Occurrence (%) of oral ulcer ([2]; ALL, LRM treated in recent 3 months): 7.1%
Ulcer observed (times) ([2]; ALL, LRM treated in recent 3 months, 42 chemotherapies): 3 times
Occurrence (%) of oral ulcer ([2]; ANLL, LRM treated before chemotherapy (150 mg i.m.)): 0%
Ulcer observed (times) ([2]; ANLL, LRM treated before chemotherapy (150 mg i.m.), 8 chemotherapies): 0 times
Occurrence (%) of oral ulcer ([2]; ANLL, LRM treated in 3 months): 12.5%
Ulcer observed (times) ([2]; ANLL, LRM treated in 3 months, 8 chemotherapies): 1 times
prevention of oral ulcer after chemotherapy ([2]; LRM treatment prior to chemotherapy): could effectively prevent the occurrence of oral ulcer after chemotherapy
incidence of oral ulcer ([2]; within 3 months after chemotherapy): could effectively decrease the incidence of oral ulcer
riboflavin content in plasma, course ([3]; high dosage LRM group (FIG. 4)): first elevated and then declined
content of riboflavin in plasma, course ([3]; riboflavin group, low and medium dosage LRM groups (FIG. 4)): decline
riboflavin discharged in urine compared with riboflavin deficiency group ([4]; after 15 days, riboflavin group, low and medium dosage LRM groups): higher than that in the riboflavin deficiency group
urinary riboflavin excretion ([4]; day 15, high dosage (double of medium)): 217.9 ± 60.2 μg per rat per day
urinary riboflavin excretion ([4]; day 15, low dosage (half of medium)): 5.6 ± 1.3 μg per rat per day
urinary riboflavin excretion [4, 7]: 34.8 ± 12.2 μg per rat per day
urinary riboflavin excretion ([4]; day 30, high dosage (double of medium)): 9.8 ± 3.5 μg per rat per day
urinary riboflavin excretion ([4]; day 30, low dosage (half of medium)): 4.1 ± 0.8 μg per rat per day
urinary riboflavin excretion [4, 8]: 5.0 ± 1.2 μg per rat per day
urinary riboflavin excretion ([4]; day 60, high dosage (double of medium)): 9.9 ± 2.0 μg per rat per day
urinary riboflavin excretion ([4]; day 60, low dosage (half of medium)): 5.4 ± 1.3 μg per rat per day
urinary riboflavin excretion [4, 9]: 7.8 ± 1.3 μg per rat per day
urinary riboflavin excretion ([4]; day 90, high dosage (double of medium)): 5.9 ± 1.2 μg per rat per day
urinary riboflavin excretion ([4]; day 90, low dosage (half of medium)): 5.1 ± 0.9 μg per rat per day
urinary riboflavin excretion [4, 10]: 4.6 ± 1.1 μg per rat per day
urinary riboflavin excretion, course over time ([4]; high dosage LRM group): markedly increased at the 15th day and then rapidly decreased after the 30 days
cases that suffered oral ulcer [5]: 4 cases
share of cases that suffered oral ulcer [5]: 14.3%
BGRAC, course and order of groups ([6]; low, medium and high dosage LRM groups (FIG. 3)): elevated, in the order as follows the low dosage LRM group>the medium dosage LRM group>the high dosage LRM group

Cc1cc2nc3c(=O)[nH]c(=O)nc-3n(C[C@H](O)[C@H](O)[C@H](O)CO)c2cc1C [Riboflavin, riboflavin, reference compound]
food intake (riboflavin group (FIG. 1)): did not drop until 25 days later and still more than that in the riboflavin deficiency group
urinary riboflavin excretion [4, 7]: 4.0 ± 1.4 μg per rat per day
urinary riboflavin excretion [4, 8]: 7.8 ± 1.6 μg per rat per day
urinary riboflavin excretion [4, 9]: 4.5 ± 0.9 μg per rat per day
urinary riboflavin excretion [4, 10]: 4.2 ± 0.9 μg per rat per day
BGRAC, course and comparison ([6]; riboflavin group, during the first 30 days (FIG. 3)): gradually increased and significantly higher than that in the LRM groups and lower than that in the riboflavin deficiency group
